Laboratory results reported in patent publication US20140039050A1, “METHOD FOR […] INFECTION IN A FE[…]” (priority 2011, published 2014).

Experiments:
Type in all cases: cell-based
bacteria = assay: Serial dilution and cultivation on Petri films after exposure of yeast cream solution (Method 1), bacteria; conditions: exposure +30° C. 30 minutes, incubated +35° C. 48 hours
Procedure: (§1) Total viable bacteria and viable yeasts in the samples herein were measured as colony forming units (CFU) per unit of volume (i.e., CFU/ml). The viability of yeasts and their ability to reproduce were measured by using a microscopical method, where specific dye (erythrosine) was used to visualize the amount and form (live, dead, budding) of yeast cells.
(§2) The yeast cream samples (recovered from the wine, through a centrifuge) were diluted with lake water in a ratio of 30%+70%, respectively. The diluted yeast cream samples (later on called yeast cream solutions) were exposed to varying concentrations of performic acid in the equilibrium solution as follows: 49.5 ppm, 74.3 ppm and 99 ppm. In a control sample, no performic acid was added to the yeast cream solution. The effect of performic acid on bacteria was determined by one method (method 1), and on yeast cells by two methods (methods 1 and 2).
(§3) The exposed samples and the control sample were held in +30° C. for 30 minutes, after which the amount of survived microbes was enumerated. The method used was a Serial dilution and cultivation method, where the effect of performic acid on the yeast cream solution was measured via dilution and cultivation of the sample after the exposure, to enumerate the amount of microbial growth. This method entail the dilution of each is sample by a factor large enough to enable clear separation of individual microbial colonies on Petri™ films (from 3M); thus allowing the colonies to be individually counted. Where diluted samples had been applied and inoculated in, the Petri™ films were incubated at +35° C. for 48 hours (bacteria) or at +30° C. for 48 hours (yeasts).

yeasts = assay: Serial dilution and cultivation on Petri films after exposure of yeast cream solution (Method 1), yeasts; conditions: exposure +30° C. 30 minutes, incubated +30° C. 48 hours
Procedure: as §1, §2, §3

yeast cells = assay: Neubauer chamber microscopy with erythrosine dye (Method 2), yeast cell count, viability and budding; conditions: exposure +30° C. 5 hours; for Reproductive yeast cells %: budding cells over total living cells; for CFU/ml Yeasts 48 h, Neubauer count: total yeast cells; for Yeast cell viability %: viable cells over total cells (live+dead)
Procedure: as §1, §2
The exposed samples and the control sample were held in +30° C. for 5 hours, after which the specific parameters of yeast cells were measured. These parameters included the amount of living yeast cells, dead yeast cells and budding yeast cells (i.e. reproducing yeast cells). The method used was a standard method, commonly adopted by Brazilian Sugar Cane Industry mills. In the method, a Neubauer chamber was filled with approximately 10 μl of the exposed sample, where the erythrosine dye had been mixed in. On the cover slip, a drop of immersion oil was added, and the above mentioned yeast cell parameters were evaluated by using an immersion objective (100×) of the microscope. The cells that presented pink coloration were counted as dead cells, and uncolored cells as living cells. The budding cells were determined on the basis of the shape of the yeast cell.
The total amount of the yeast cells was counted and compared to the result obtained with Method 1. Results are provided in Table 1 (Neubauer count of yeast cells). The cell viability indicates the percentage of viable cells over total cells (live+dead). The cell reproductive % indicates the percentage of budding cells over total living cells.

[1] = 49.5 ppm performic acid in yeast cream solution
[2] = 74.3 ppm performic acid in yeast cream solution
[3] = 99 ppm performic acid in yeast cream solution

## O=COO [performic acid]
bacteria; [1]
  CFU/ml Bacteria 48 h, MIC: 60 CFU/ml
bacteria; [2]
  CFU/ml Bacteria 48 h, MIC: 70 CFU/ml
bacteria; [3]
  CFU/ml Bacteria 48 h, MIC: 30 CFU/ml
yeasts; [1]
  CFU/ml Yeasts 48 h, MIC: 1 000 000 000 CFU/ml
yeasts; [2]
  CFU/ml Yeasts 48 h, MIC: 6 100 000 000 CFU/ml
yeasts; [3]
  CFU/ml Yeasts 48 h, MIC: 1 000 000 000 CFU/ml
Yeast cells; [1]
  Reproductive yeast cells %: 6.8%
  CFU/ml Yeasts 48 h, Neubauer count: 380 000 000 CFU/ml
  Yeast cell viability %: 71.1%
Yeast cells; [2]
  Reproductive yeast cells %: 8.9%
  CFU/ml Yeasts 48 h, Neubauer count: 400 000 000 CFU/ml
  Yeast cell viability %: 72.1%
Yeast cells; [3]
  Reproductive yeast cells %: 4.1%
  CFU/ml Yeasts 48 h, Neubauer count: 640 000 000 CFU/ml
  Yeast cell viability %: 72.3%
